According to PMC13242511, “Disrupting Notch signalling by a small molecule inhibiting dihydroorotate dehydrogenase activity” (Scientific Reports, 2026):

Experiments:
NOTCH1 = assay: Western blot analysis of S3-cleaved NOTCH1 (a-N1-V1744); assay type: cell-based; conditions: for V1744 (activated N1) band intensity / V1744 normalised to beta-actin signals / V1744, DMSO as reference: Western blot quantification, Supplemental Figure 4K; for V1744, DMSO as reference: DMSO = 1
Description: Cells were washed in ice-cold PBS and incubated for 30 min on ice with RIPA cell lysis buffer (Thermofisher, cat #89900) containing protease and phosphatase inhibitors (Thermofisher, cat #78442), scraped off and homogenized using a 25G syringe, and subsequently centrifugated for 10 min at > 13,000xg. […] After electrophoresis, gels were placed directly onto a TransBlot Turbo PVDF or nitrocellulose membrane (Bio-rad, cat #1704157 and cat #1704159) and transferred using the “HIGH MW” protocol (Bio-Rad). Subsequently, membranes were blocked for 1 h at room temperature using Clear Milk Blocking Buffer (ThermoFisher, cat #37587) supplemented with 0.1% Tween20 (Sigma-Aldrich, cat #P1379). Detection of antibody binding was performed by using Clarity Western ECL-Substrate (Bio-rad, cat #1705060S). Beta-Actin protein signals were used as a loading control. Western blot membranes were in some experiments stripped after development (indicated in the figure in each respective case) by washing the membranes twice for 10 min in PBS, followed by incubation in membranes in western blot stripping buffer (ThermoFisher, cat #21059) for 30 min at room temperature and gentle agitation. Stripped membranes were washed twice with PBS and incubated for 30 min in blocking buffer before incubation with primary antibody. A list of all antibodies used in this study is provided in Supplemental Table 6. Uncropped western blot images are provided in […]. Protein expression levels of western blot bands were quantified using Fiji (V.2.16) with beta-Actin signals for normalisation (Supplemental Table 8). Uncropped western blot images are provided in Supplemental Fig. 10.

[1] = tested on: Notch downstream genes in tumour cell lines; assay: Three dose response gene expression analysis (qRT-PCR), panel of cell lines; assay type: cell-based; design: key to gene expression: + indicates that the compound had an effect; -: − indicates that there was no significant effect in the respective assay; conditions: for gene expression: summary Fig. 8E; for Notch targets: overview in comparison to compound C, Supplemental Fig. 9
Description: Total RNA from cell lines was isolated using the RNeasy Mini kit (cat #74104, Qiagen), according to the manufacturer’s instructions. qRT-PCR was performed as described elsewhere[51] with some minor modifications: RNA was reverse transcribed to cDNA using iScript Reverse Transcription Supermix (cat # 1708841, Bio-rad). cDNA was then diluted 1:5 in nuclease free H20. qRT-PCR was performed on a C1000 Touch thermal cycler (Bio-rad) and gene expression was detected with SsoAdvanced Universal SYBR Green Supermix (cat # 1725274, Bio-rad). Gene expression was determined by normalizing to GAPDH mRNA expression levels and fold expression change was calculated using the ΔΔCT method (ΔΔCT = ΔCt sample − Δct control). Primers used in qPCR are shown in Supplemental Table 9.
Adherent breast cancer cells were seeded in 24-well cell culture plates (ThermoFisher, Nunc, Delta surface, cat #144530) and T-ALL cells growing in suspension (Jurkat, RPMI-8402) were seeded in non-adherent 24-well plates (ThermoFisher, Nunc, cat […]). 60.000 cells were seeded and treated with 0.1, 1 and 10 µM of each compound. […] Cells were harvested 24 h post treatment and RNA isolation and gene expression analysis (qRT-PCR) was performed as described above.

Compound | V1744 (activated N1) band intensity (NOTCH1) | V1744 normalised to beta-actin signals (NOTCH1) | V1744, DMSO as reference (NOTCH1) | gene expression [1] | S3-processing of Notch1ΔE (Western blot) (NOTCH1; clone A (#A1-11), Fig. 1F) | Notch targets [1] | HES1 and HES4 target gene expression ([1]; across the panel of cell lines)
Cc1ccc2[nH]c3c(c2c1)CCOC31CCN(Cc2ccccc2-c2ccccc2)CC1 [compound B] | 10802.4 | 0.6 | 0.4585 | + |  |  | 
C[C@H](NC(=O)Cc1cc(F)cc(F)c1)C(=O)N[C@H](C(=O)OC(C)(C)C)c1ccccc1 [DAPT, reference compound] |  |  |  |  | almost completely abolished |  | 
CCc1c(C(=O)N(C)Cc2cnn(C(C)C)c2)[nH]c2ccccc12 [compound A] | 20296.9 | 1.0 | 0.806 | - |  |  | 
CC(C)(C)c1ccc(Oc2ccc(N)cn2)cc1 [CB-103, reference compound] | 20841.8 | 0.8 | 0.6093 |  |  | condition dependent | 
CC(C)(C(=O)NCC(F)(F)C(F)(F)F)C(=O)N[C@@H]1C(=O)Nc2ccccc2-c2ccccc21 [RO4929097, reference compound] | 4624.07 | 0.211 | 0.1638 |  |  | condition dependent | consistently reduced
COc1cccc(CNc2ccc(N3CCCCC3)cc2)c1OCc1cccs1 [compound C] | 14466.8 | 0.8 | 0.5945 | + |  | condition dependent | 
Cc1nn(-c2nc3ccccc3s2)c(O)c1C1OC(=O)c2ccccc21 (stereo not shown) [compound E] | 44303.5 | 1.9 | 1.451 | + |  |  | 
NC(=O)c1c(NC(=O)NCc2cccnc2)sc2c1CCC2 [compound D] | 30696.5 | 1.2 | 0.9101 | + |  |  | 
